PMC5126104, “Identification of a Chemoreceptor in Pseudomonas aeruginosa That Specifically Mediates Chemotaxis Toward α-Ketoglutarate” (Frontiers in Microbiology, 2016)

B1: McpK ligand binding domain (McpK-LBD) (domain or fragment, Pseudomonas aeruginosa PAO1, UniProt Q9HUB1 38-293, looked up)
chain: RTLTHQTALSEQLAEVASLMEQTQQAEQGRLAFEAGSDPRQAEQVRQTLAGMLQRLQALRDSELDPAALAHQVEAIEAYRKAFDDLAAADQQRSAARGVLVGTAQQALDSFARLEELMDASLAQQAGDPQALQRSRAVADLHQQLLMVRYQVRGYVFERSDKAEQAAFAAFDALRQAATTLRGQLPGEADAALEQAMGSLQGYRGGIEQFRAGVIRTRQAQQAMQSSTQDMARAGRTLTEAGRQLRESTASRDRAS
notes: No removal of the tag is described; In monomer-dimer equilibrium by AUC; also called PA5072-LBD; source: E. coli BL21 (DE3), pET28-McpK-LBD, purified (HisTrap column)

biological target: T1, McpK (PA5072) chemoreceptor ligand binding domain (Pseudomonas aeruginosa, UniProt Q9HUB1); assay: ITC (two symmetric-site cooperative model; Kd1 =[…], Kd2 =[…]); supported by thermal shift (+[…]°C) and AUC dimer stabilization; details: not given
T1 construct: McpK-LBD, Arg38–Ser293

Molecule | Kd
O=C(O)CCC(=O)C(=O)O [α-ketoglutarate] | 80.9 µM

biological target: T1, McpK (PA5072) chemoreceptor ligand binding domain; assay: not given; design: thermal shift assay with SYPRO Orange, Tm change of recombinant McpK-LBD; details: binder
Experimental: Thermal shift assays were performed using a BioRad MyIQ2 Real-Time PCR instrument. Ligands were prepared by dissolving Biolog Phenotype Microarray compounds in 50 μl of MilliQ water to obtain a final concentration of around 10–20 mM (as indicated by the manufacturer). Screening was performed with plates PM1, PM2A, PM3B, PM4A, and PM5. Each plate contains 95 compounds and a control (Supplementary Figure S1). Each 25 μl assay mixture contained 40 μM protein in 5 mM Tris, 5 mM Pipes, 5 mM Mes, pH8.0 and SYPRO orange (Life Technologies) at 5x concentration. Aliquots of 2.5 μl of the resuspended Biolog compounds were added to each well. Samples were heated from 23°C to 85°C at a scan rate of 1°C/min. The protein unfolding curves were monitored by detecting changes in SYPRO Orange fluorescence. Melting temperatures were determined using the first derivative values from the raw fluorescence data. […] Ligands tested included different bacterial carbon-, nitrogen-, phosphorous-, and sulfur sources as well as to nutrient supplements, which are listed in Supplementary Figure S1. A total of 13 compounds were identified that increased or decreased the Tm by at least 2°C (Supplementary Table S2), which is the generally accepted threshold for a relevant ligand-induced change in protein stability.

Molecule | Tm Shift (°C)
O=C(O)CCC(=O)C(=O)O [α-ketoglutarate] | +5.2 °C
N[C@@H](CCC(=O)O)C(=O)O [L-Glutamic acid] | +2.3 °C
NCCCC(=O)O [γ-Aminobutyric acid] | +4.1 °C
CC(=O)O [Acetate] | -0.2 °C
O=C(O)CC(O)C(=O)O (stereo not drawn) [Malate] | +0.5 °C
O=c1cc[nH]c(=O)[nH]1 [Uracil] | +4.2 °C
N[C@@H](C(=O)O)[C@@H](O)[C@H](O)[C@H](O)CO [D-Glucosaminic acid] | +3.5 °C
NC(=O)CC[C@H](N)C(=O)O [L-Glutamine] | +2.2 °C
O=C1O[C@@H]([C@H](O)CO)[C@H](O)[C@H]1O [D-Galactonic acid-γ-lactone] | +2 °C
COC(=O)C(C)=O [Methyl pyruvate] | +3.3 °C
CC(=O)C(=O)O [Pyruvate] | +0.1 °C
O=C(O)[C@H]1OC(O)[C@H](O)[C@@H](O)[C@H]1O (stereo partly drawn) [D-Galacturonic acid] | +2.3 °C
NCCc1ccccc1 [Phenylethylamine] | +3.5 °C
O=C(O)/C=C/C(=O)O [Fumarate] | +0.3 °C
CC(O)C(=O)O (stereo not drawn) [Lactate] | +0.2 °C
NCCCCC(=O)O [5-Aminovaleric acid] | +3.9 °C
O=C(O)CCC(=O)O [Succinate] | -0.3 °C
O=C(O)CC(O)(CC(=O)O)C(=O)O [Citrate] | +0.8 °C
O=C(O)CC(=O)C(=O)O [Oxaloacetate] | +0 °C
C=C(CC(=O)O)C(=O)O [Itaconate] | -2.2 °C
CCCC(=O)O [Butyrate] | +0.7 °C
O=C(O)CC(CC(=O)O)C(=O)O [Tricarballylate] | +0.3 °C
NC(=O)OP(=O)(O)O [Carbamyl phosphate] | +3.5 °C

Biological target: the molecule itself
Assay: AUC; sedimentation equilibrium, multi-speed, ligand-free McpK-LBD at 40, 50 and 60 uM, 7 °C, dialysis buffer (5 mM Tris, 5 mM PIPES, 5 mM MES, pH 8.0); global fit in SEDPHAT; dimer to monomers
Details: not given

Molecule | Kd
B1 | 55 µM

Biological target: the molecule itself
Assay: AUC; sedimentation equilibrium, multi-speed, McpK-LBD at 40, 50 and 60 uM with 1 mM alpha-ketoglutarate, 7 °C, dialysis buffer (5 mM Tris, 5 mM PIPES, 5 mM MES, pH 8.0); global fit in SEDPHAT; dimer to monomers
Details: not given

Molecule | Kd
B1 | 5.9 µM

Biological target: the molecule itself
Assay: AUC; sedimentation velocity, McpK-LBD (10-50 uM) with 1 mM alpha-ketoglutarate, 7 °C, 5 mM Tris, 5 mM PIPES, 5 mM MES, pH 8.0; c(s) analysis in SEDFIT
Details: not given

Molecule | stoichiometry N
B1 | 2
